Experimental data taken from US20160106439A1, “PNEUMATIC TOURNIQUET” (BIONUMERIK PHARMACEUTICALS, INC., priority 2013, published 2016).
Read-outs that look alike come from different tables or passages of the source.

How the values were obtained:
[1] = target: recombinant human ALK (Homo sapiens, UniProt Q9UM73); assay: biochemical; details: for IC50: IC50 on ALK
Experimental: The substrate that was phosphorylated by the kinase, polyglutamate-tyrosine (PolyGT), was purchased from Sigma (P0275, lot 120M5007V).
All other reagents were purchased from Sigma Aldrich. A Tecan Ultra microplate reader with XFluor software (Tecan, V4.51) and RdrOle software (Tecan, V4.50) were used in this study.
ALK phosphorylated the polyGT substrate using the ATP cofactor and produced ADP. […] The reactions, in microtubes, were incubated for 60 minutes at 25° C. in a water bath. Following this 60 minute incubation, reactions were transferred to microplates and the kinase activity was evaluated using the ADP-glo system from Promega and monitored, in an endpoint assay, ADP produced when ALK phosphorylated the PolyGT substrate. Various controls were tested and included the assay components indicated in the columns of Table 9 below (where + indicates the component was included and an empty cell indicates it was not included).
Kinase assays were run in triplicate or quadruplicate in microplates. Following this, the ADP-glo detection system (Promega) was used to determine how much ADP had been produced. For 10 μL volume assays, to each microplate well containing 10 μL of kinase reaction was added ADP-glo reagent (10 μL), plates were spun in a table top centrifuge (1000 rpm (123×g) for 1 minute) to ensure no reagent remained on the well walls, and then agitated for 1 minute to ensure optimal mixing. Plates were incubated at 25° C. on a heat block for 40 minutes. Next, kinase detection reagent (20 μL) was added and, as above, centrifugation and agitation was repeated; plates were allowed to incubate at 25° C.±1° C. on a heat block for 40 minutes. Following the incubation of the kinase detection reagent, plates were read on a Tecan Ultra microplate reader. The Tecan Ultra contained a built-in plate definition file for the whole area 96-well white Corning plates but a plate definition file for the half area 96-well Corning plates was created using the RdrOle component of the Tecan Ultra software. For 25 μL volume assays, the procedure was as described above except that the ADP-glo reagent added to the 25 μL assay was 25 μL in volume and the kinase detection reagent was 50 μL in volume.
Therefore, each mole of polymer of 20,000 g/mole would contain approximately 28 moles of the glu-glu-glu-glu-tyr “subpolymer.” Typically, a 10 μL assay would contain […] of the polyGT substrate. […] This was a vast excess of possible tyrosine phosphorylation sites, ensuring that the substrate for phosphorylation was not rate limiting (assuming the higher mass range would produce an even larger excess of glu-glu-glu-glu-tyr “subpolymers”).
Data from ALK assays run on the Tecan Ultra microplate spectrophotometer were collected in Microsoft Excel. Error calculations and graphical representations were performed in Microsoft Office Excel (Microsoft Corporation, Redmond, Wash., USA). Determination of IC25, IC50 and IC75 values were accomplished using Origin Lab software (OriginLab Corporation, Northampton, Mass., USA).

[2] = target: T1, E13K, D16K, E95K, E103K Thioredoxin (Homo sapiens, UniProt P10599, D16K/E103K/E13K/E95K); assay: X-ray crystallography of Tavocept-derived mesna adduct on Trx; format: binding; details: 40 mM Tavocept
T1 construct: made in house; host or cells: E. coli BL21(DE3), pET-15b system
T1 sequence (P10599 1-105 E13K/D16K/E95K/E103K): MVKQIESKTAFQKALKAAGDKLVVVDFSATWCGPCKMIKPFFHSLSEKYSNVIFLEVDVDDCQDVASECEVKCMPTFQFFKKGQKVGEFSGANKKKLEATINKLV
Experimental: Adduct was prepared as described above with some modifications designed to increase the likelihood of success in crystallization of the protein. […] This reaction was incubated for 1 hour at 30° C. followed by overnight incubation at 4° C. […] Aliquots of this solution were analyzed by ESI LC-MS to confirm the presence of adduct(s) prior to initiation of crystallization experiments.
These initial broad screens produced crystals under a wide range of conditions (data not shown) and the screens used included: (i) PEGION, CRYSTALS HT, and PEGRX (Hampton Research) and (ii) JCSG and BASIC (JENA Biosciences). Multiple rounds of optimization were completed and included fine screens, varying the protein concentration and varying the protein to reservoir ratios to obtain diffraction quality crystals. In the Trx pH 9.0/8.5 structure (adduct formed at pH 9.0, crystals grown at pH 8.5), the best crystals were obtained in 20% ethanol, 0.1 M Tris (at 60 mg/mL Trx protein) and diffracted to 2.5 Å (C2 space group). In Trx pH 9.0/7.0 (adduct formed at pH 9.0, crystals grown at pH 7.0), the best crystals were obtained in 20% PEG3350, 0.2 M KCl (60 mg/mL Trx protein) and diffracted to 2.8 Å (C2 space group). In Trx pH 7.0/7.0 (adduct formed at pH 7.0, crystals grown at pH 7.0), the best crystals were obtained in 28% PEG3350, 0.2M KCl (160 mg/mL Trx protein) and diffracted to 1.85 Å resolution (P21 space group).
The solution obtained was consistent with four molecules in the crystal asymmetric unit. […] Molecules C and D were substantially rebuilt and the Tavocept-derived mesna adduct added after protein rebuilding was complete. The structure solution was supported by contiguous electron density for the entire chain trace of each molecule, landmark side chain density features matching the amino acid sequence including cysteines, absence of phi-psi violations, and final R/Rfree values in the normal range. […] For the Trx pH 9.0/8.5 structure, residual density observed near Cys69 of molecule A was modeled as a Tavocept-derived mesna adduct in a dual conformation. […]

[3] = target: WT EGFR kinase (Homo sapiens, UniProt P00533)
WT EGFR kinase, sequence (P00533 25-1210): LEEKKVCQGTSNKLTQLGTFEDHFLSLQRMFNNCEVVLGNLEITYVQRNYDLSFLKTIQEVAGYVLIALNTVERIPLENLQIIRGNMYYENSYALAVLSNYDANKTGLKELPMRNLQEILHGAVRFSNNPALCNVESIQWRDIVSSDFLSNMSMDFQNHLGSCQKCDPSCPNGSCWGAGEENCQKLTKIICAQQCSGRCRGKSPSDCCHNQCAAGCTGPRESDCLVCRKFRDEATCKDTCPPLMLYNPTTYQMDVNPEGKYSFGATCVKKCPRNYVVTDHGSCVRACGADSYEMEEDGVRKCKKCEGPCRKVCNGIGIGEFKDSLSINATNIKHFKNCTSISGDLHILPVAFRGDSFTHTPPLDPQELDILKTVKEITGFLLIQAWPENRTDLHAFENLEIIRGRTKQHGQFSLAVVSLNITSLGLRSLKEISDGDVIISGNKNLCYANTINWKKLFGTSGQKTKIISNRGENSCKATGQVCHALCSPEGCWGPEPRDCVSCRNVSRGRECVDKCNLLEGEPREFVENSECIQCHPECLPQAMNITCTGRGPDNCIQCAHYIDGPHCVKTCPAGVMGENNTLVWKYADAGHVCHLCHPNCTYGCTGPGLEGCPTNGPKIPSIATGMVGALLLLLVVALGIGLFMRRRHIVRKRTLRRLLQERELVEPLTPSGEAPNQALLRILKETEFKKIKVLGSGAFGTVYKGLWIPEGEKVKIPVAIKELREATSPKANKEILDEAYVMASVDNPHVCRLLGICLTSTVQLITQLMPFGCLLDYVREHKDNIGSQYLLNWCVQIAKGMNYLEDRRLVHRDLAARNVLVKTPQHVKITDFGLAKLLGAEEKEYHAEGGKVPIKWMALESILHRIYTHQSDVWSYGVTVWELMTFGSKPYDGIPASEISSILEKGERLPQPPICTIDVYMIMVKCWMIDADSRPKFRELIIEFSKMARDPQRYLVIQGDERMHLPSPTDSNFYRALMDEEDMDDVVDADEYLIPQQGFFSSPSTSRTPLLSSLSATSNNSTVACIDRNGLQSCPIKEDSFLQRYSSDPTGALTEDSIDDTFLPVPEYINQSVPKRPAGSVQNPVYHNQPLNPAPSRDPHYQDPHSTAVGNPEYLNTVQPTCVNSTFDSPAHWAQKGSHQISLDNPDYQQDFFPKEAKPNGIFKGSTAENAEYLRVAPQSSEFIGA

recombinant human ALK, sequence (Q9UM73 1058-1620 limits assumed): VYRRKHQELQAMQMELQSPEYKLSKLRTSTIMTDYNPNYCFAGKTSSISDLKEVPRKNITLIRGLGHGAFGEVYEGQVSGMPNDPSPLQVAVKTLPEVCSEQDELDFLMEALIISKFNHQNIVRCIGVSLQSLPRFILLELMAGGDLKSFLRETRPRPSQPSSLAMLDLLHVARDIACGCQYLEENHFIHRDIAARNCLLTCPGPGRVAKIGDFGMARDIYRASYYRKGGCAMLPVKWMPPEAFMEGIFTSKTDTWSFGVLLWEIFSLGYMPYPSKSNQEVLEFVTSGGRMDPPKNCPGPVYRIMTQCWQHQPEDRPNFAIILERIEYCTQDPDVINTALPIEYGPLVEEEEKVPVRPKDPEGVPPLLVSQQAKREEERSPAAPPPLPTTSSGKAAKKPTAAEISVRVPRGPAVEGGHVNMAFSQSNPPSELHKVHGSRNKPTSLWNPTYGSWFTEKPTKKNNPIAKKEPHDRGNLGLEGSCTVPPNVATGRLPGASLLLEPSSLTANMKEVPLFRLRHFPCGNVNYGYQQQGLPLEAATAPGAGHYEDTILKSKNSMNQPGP

O=S(=O)([O-])CCSSCCS(=O)(=O)[O-].[Na+].[Na+] [Tavocept, disodium 2,2′-dithio-bis-ethane sulfonate]
greater inhibition of ALK than Crizotinib alone ([1]; 100 μM ATP, 5 mM Tavocept + 15 nM Crizotinib): 16% | greater inhibition of ALK than Crizotinib alone ([1]; 100 μM ATP, 5 mM Tavocept + 30 nM Crizotinib): 10% | greater inhibition of ALK than Crizotinib alone ([1]; 100 μM ATP, 10 mM Tavocept + 15 nM Crizotinib): 29% | greater inhibition of ALK than Crizotinib alone ([1]; 100 μM ATP, 10 mM Tavocept + 30 nM Crizotinib): 19% | greater inhibition of ALK than Crizotinib alone ([1]; 500 μM ATP, 5 mM Tavocept + 30 nM Crizotinib): 11% | greater inhibition of ALK than Crizotinib alone ([1]; 500 μM ATP, 5 mM Tavocept + 65 nM Crizotinib): 6% | greater inhibition of ALK than Crizotinib alone ([1]; 500 μM ATP, 10 mM Tavocept + 30 nM Crizotinib): 20% | greater inhibition of ALK than Crizotinib alone ([1]; 500 μM ATP, 10 mM Tavocept + 65 nM Crizotinib): 6% | greater inhibition of ALK than Crizotinib alone ([1]; 500 μM ATP, 20 mM Tavocept + 30 nM Crizotinib): 30% | greater inhibition of ALK than Crizotinib alone ([1]; 500 μM ATP, 20 mM Tavocept + 65 nM Crizotinib): 13% | IC50 ([1]; 100 μM ATP): 9.16 ± 2.91 mM | IC50 ([1]; 500 μM ATP): 20.8 ± 3.49 mM | inhibition at 5000 µM ([1]; read-out: greater inhibition of ALK than Crizotinib alone, 100 μM ATP, 5 mM Tavocept + 15 nM Crizotinib): 16% | inhibition at 5000 µM ([1]; read-out: greater inhibition of ALK than Crizotinib alone, 100 μM ATP, 5 mM Tavocept + 30 nM Crizotinib): 10% | inhibition at 10000 µM ([1]; read-out: greater inhibition of ALK than Crizotinib alone, 100 μM ATP, 10 mM Tavocept + 15 nM Crizotinib): 29% | inhibition at 10000 µM ([1]; read-out: greater inhibition of ALK than Crizotinib alone, 100 μM ATP, 10 mM Tavocept + 30 nM Crizotinib): 19% | inhibition at 5000 µM ([1]; read-out: greater inhibition of ALK than Crizotinib alone, 500 μM ATP, 5 mM Tavocept + 30 nM Crizotinib): 11% | inhibition at 5000 µM ([1]; read-out: greater inhibition of ALK than Crizotinib alone, 500 μM ATP, 5 mM Tavocept + 65 nM Crizotinib): 6% | inhibition at 10000 µM ([1]; read-out: greater inhibition of ALK than Crizotinib alone, 500 μM ATP, 10 mM Tavocept + 30 nM Crizotinib): 20% | inhibition at 10000 µM ([1]; read-out: greater inhibition of ALK than Crizotinib alone, 500 μM ATP, 10 mM Tavocept + 65 nM Crizotinib): 6% | inhibition at 20000 µM ([1]; read-out: greater inhibition of ALK than Crizotinib alone, 500 μM ATP, 20 mM Tavocept + 30 nM Crizotinib): 30% | inhibition at 20000 µM ([1]; read-out: greater inhibition of ALK than Crizotinib alone, 500 μM ATP, 20 mM Tavocept + 65 nM Crizotinib): 13% | Tavocept-derived mesna adduct sites on Trx ([2]; Trx pH 7.0/7.0 structure): clearly visible on Cys69 in both molecules A and B | Tavocept-derived mesna adduct sites on Trx ([2]; Trx pH 9.0/7.0 structure): clearly visible on both Cys69 and Cys62 in both molecules A and B | Tavocept-derived mesna adduct sites on Trx ([2]; Trx pH 9.0/8.5 structure): clearly visible on Cys69 in both molecules A and B | inhibition [3]: 9%
